“Also recorded” adds a separate entry of the source. Blank lines part the entries; values can stand above or below the molecule they belong to.
Legend:
human GATA2 = biological target: T1, human GATA2 (Homo sapiens, UniProt P23769); experiment: GATA2-dependent reporter assay in IHH cells; format: cell-based; conditions: GATA-Luc reporter, 48 h
T1 construct: expressed in transfected cells; host or cells: IHH
T1 sequence (P23769 1-480): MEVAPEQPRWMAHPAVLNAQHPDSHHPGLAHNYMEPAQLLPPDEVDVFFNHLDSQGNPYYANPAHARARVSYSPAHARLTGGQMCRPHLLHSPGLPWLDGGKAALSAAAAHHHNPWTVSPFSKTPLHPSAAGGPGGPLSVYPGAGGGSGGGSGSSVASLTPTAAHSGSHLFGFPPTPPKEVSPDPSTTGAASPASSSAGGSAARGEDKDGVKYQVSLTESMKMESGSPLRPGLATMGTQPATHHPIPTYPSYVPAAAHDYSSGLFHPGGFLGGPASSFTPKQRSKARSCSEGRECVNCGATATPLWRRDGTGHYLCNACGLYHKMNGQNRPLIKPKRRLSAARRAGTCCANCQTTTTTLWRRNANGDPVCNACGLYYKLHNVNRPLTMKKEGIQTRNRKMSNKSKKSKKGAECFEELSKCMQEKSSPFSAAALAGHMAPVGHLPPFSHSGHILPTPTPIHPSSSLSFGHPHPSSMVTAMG
Protocol: K7174 is a known GATA2 inhibitor. The IHH cells were transiently transfected with empty vector (for the NT) or human GATA2-expressing plasmid as well as pRL-TK (internal control) and GATA-Luc reporter plasmids. Cells were exposed to DMSO vehicle or compounds for 48 h. Experiments were in triplicate.

human STING (hSTING) = biological target: T2, human STING (hSTING) (Homo sapiens, UniProt Q86WV6); experiment: hSTING ISRE-luc reporter assay in 293T cells; format: cell-based; conditions: 24 hours
T2 construct: expressed in transfected cells; host or cells: 293T
Protocol: ISRE-luc (reporter), pRL-TK (internal control) and hSTING-expressing plasmids were transiently transfected into 293T cells. Cells were exposed to DMSO vehicle control or compounds for 24 hours. Experiments were done in triplicate.

[1] = test system: interferon signaling pathway in THP-1 cells; experiment: Western blot, interferon signaling in THP-1 cells; format: cell-based; conditions: 16 hours
Protocol: THP1 cells were treated for 16 hours with the indicated concentration (μM) of compounds or DMSO vehicle control. Whole-cell extracts were prepared and subjected to Western blot analysis with the antibodies as indicated.

hSTING and/or mSTING = experiment: hSTING- or mSTING-dependent ISRE-luc reporter assay in 293T cells; format: cell-based; conditions: 24 hours
Protocol: ISRE-luc (reporter), pRL-TK (internal control) and hSTING- or mSTING-expressing plasmids were transiently transfected into 293T cells. Cells were exposed to DMSO vehicle control or compounds for 24 hours. Experiments were done in triplicate.

[2] = test system: EZH2, c-Myc and ERG expression in VCaP cells; experiment: Expression of EZH2, c-Myc and ERG in VCaP cells; format: cell-based; conditions: 10 μM, 72 hours
Protocol: VCaP cells were exposed to DMSO vehicle control, 648, 698 and 891 at 10 μM for 72 hours in DMEM medium plus 10% FBS or phenol red-free DMEM medium plus 10% charcoal-stripped FBS (CS-FBS).

ESE-1 = biological target: T3, ESE-1 (Homo sapiens, UniProt P78545); experiment: ESE-1 dependent reporter assay in HEK293 cells; format: cell-based; conditions: 48 hours
T3 construct: expressed in transfected cells; host or cells: HEK293
T3 sequence (P78545 1-371): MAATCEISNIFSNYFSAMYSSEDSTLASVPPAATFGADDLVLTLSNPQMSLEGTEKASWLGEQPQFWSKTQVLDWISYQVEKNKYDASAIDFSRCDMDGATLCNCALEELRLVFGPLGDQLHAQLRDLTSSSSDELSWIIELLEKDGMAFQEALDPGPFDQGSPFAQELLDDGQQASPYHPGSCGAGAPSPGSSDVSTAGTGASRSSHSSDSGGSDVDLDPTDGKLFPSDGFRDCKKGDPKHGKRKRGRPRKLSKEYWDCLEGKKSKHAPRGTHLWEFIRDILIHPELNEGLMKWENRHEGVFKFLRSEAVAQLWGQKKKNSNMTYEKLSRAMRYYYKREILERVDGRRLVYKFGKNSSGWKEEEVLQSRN
Protocol: (§1) HEK293 cells were transiently transfected with empty vector (for the NT) or ERG-expressing plasmid as well as pRL-TK (internal control) and PUx3-Luc reporter. Cells were then exposed to DMSO vehicle or compounds at designated doses for 48 hours. Experiments were done in triplicate.
Experiments were done as described above in FIG. 1.1a) except that ERG plasmid was replaced by ESE-1 plasmid.

ERG = biological target: T4, ERG (Homo sapiens, UniProt P11308); experiment: ERG-dependent reporter assay in HEK293 cells; format: cell-based; parameters: expressed in transfected cells; host or cells: HEK293; conditions: PUx3-Luc reporter, 48 hours, designated doses
T4 sequence (P11308 1-486 isoform P11308-3): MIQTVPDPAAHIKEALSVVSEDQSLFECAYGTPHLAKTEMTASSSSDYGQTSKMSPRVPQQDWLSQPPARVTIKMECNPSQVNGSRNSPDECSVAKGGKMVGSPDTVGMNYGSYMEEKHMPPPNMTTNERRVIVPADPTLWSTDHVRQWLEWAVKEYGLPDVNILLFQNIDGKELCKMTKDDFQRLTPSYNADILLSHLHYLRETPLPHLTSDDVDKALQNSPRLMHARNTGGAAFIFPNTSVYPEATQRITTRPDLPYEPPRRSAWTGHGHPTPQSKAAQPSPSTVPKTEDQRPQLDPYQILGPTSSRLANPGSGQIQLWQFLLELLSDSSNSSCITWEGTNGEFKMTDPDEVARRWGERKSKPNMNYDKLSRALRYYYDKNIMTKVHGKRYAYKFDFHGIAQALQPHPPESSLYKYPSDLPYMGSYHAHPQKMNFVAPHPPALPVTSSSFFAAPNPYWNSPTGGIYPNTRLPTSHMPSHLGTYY
Protocol: as §1

[3] = biological target: T5, recombinant protein of human GATA2 (Homo sapiens, UniProt P23769); experiment: SPR analysis on amine-coupled GATA2; format: binding; conditions: 50 μM each
T5 sequence (P23769 1-480): T1 sequence (P23769 1-480)
Text: In embodiments of the invention, the androgen-bound AR is regressing GATA2 expression and inhibition of AR via castration or use of antiandrogen releases such expression. […] Overexpression of GATA2 confers resistance to antiandrogen bicalutamide (Bic) (FIG. 2.9). Compound 673 is effective against the LNCaP stably transfected with GATA2-expressing plasmid (referred to as LNCaP-GATA2 cells) (FIG. 2.8).

T2 sequence (Q86WV6 whole entry H232R): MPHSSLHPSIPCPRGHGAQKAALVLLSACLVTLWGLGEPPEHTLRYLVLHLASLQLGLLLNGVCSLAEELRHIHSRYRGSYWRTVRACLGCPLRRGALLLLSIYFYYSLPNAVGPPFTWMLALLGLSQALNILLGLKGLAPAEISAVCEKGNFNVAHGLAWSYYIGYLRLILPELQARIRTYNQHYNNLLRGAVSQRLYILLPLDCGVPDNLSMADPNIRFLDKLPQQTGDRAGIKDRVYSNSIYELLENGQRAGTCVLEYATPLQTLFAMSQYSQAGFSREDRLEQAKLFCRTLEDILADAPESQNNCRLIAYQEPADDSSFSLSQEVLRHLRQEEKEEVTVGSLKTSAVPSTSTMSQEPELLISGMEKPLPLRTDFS

GATA2 inhibition in GATA2-dependent reporter assay (human GATA2): GATA2 inhibitors | activation of hSTING in ISRE-luc reporter assay (human STING (hSTING)): activate hSTING
SMILES: Fc1cccc(-c2oc(CCCc3c[nH]c4ccccc34)nc2-c2ccco2)c1 [Compound 834]
activation of interferon signaling pathway (Western blot) [1]: activate interferon signaling pathway

GATA2 inhibition in GATA2-dependent reporter assay (human GATA2): GATA2 inhibitors | activation of hSTING in ISRE-luc reporter assay (human STING (hSTING)): activate hSTING
SMILES: COc1cccc(-c2oc(CCCc3c[nH]c4ccccc34)nc2-c2ccco2)c1 [Compound 840]
activation of interferon signaling pathway (Western blot) [1]: activate interferon signaling pathway

SMILES: Fc1cccc(-c2nc(CNCCc3c[nH]c4ccccc34)[nH]c2-c2cccc(F)c2)c1 [Compound 874]
activation of hSTING and/or mSTING in ISRE-luc reporter assay (hSTING and/or mSTING): activate hSTING and/or mSTING | activation of hSTING and/or mSTING in ISRE-luc reporter assay (hSTING and/or mSTING; 10 μM): activate hSTING and/or mSting | activation of interferon signaling pathway (Western blot) [1]: activate interferon signaling pathway

SMILES: Oc1ccccc1-c1nc(Cc2c[nH]c3ccccc23)oc1-c1ccccc1O [Compound 891]
inhibition of expression of EZH2, c-Myc and ERG [2]: inhibit expression of EZH2, c-Myc and ERG

SMILES: c1ccc(CN2CCN(Cc3nc(-c4ccccc4)c(-c4ccccc4)o3)CC2)cc1 [Compound 1176]
activation of hSTING and/or mSTING in ISRE-luc reporter assay (hSTING and/or mSTING): activate hSTING and/or mSTING | activation of hSTING and/or mSTING in ISRE-luc reporter assay (hSTING and/or mSTING; 10 μM): activate hSTING and/or mSTING | activation of interferon signaling pathway (Western blot) [1]: activate interferon signaling pathway

ESE-1 inhibition in ESE-1 dependent reporter assay (ESE-1): ESE-1 inhibitors
SMILES: Fc1ccccc1CSc1ncnc2c1ncn2C1CCCO1 (centres unmarked) [Compound V131]
ERG inhibition in ERG-dependent reporter assay (ERG): potent inhibitor of ERG; also recorded: ERG inhibitors

GATA2 inhibition in GATA2-dependent reporter assay (human GATA2): GATA2 inhibitors
SMILES: O=C(CC(O)(CCc1ccccc1)c1ccccc1)N1CCC(O)(c2ccccc2)CC1 (centres unmarked) [Compound V248]
binding to amine-coupled GATA2 (SPR) [3]: Direct binding; also recorded: Specific binding

From US10844051B2, “Substituted oxazoles for the treatment of cancer” (THE ROYAL INSTITUTION FOR THE ADCANCEMENT OF …, priority 2015, dated 2020)
